In US9193729B2, “Inhibiting transient receptor potential ion channel TRPA1” (Cubist Pharmaceuticals, Inc., priority 2011, dated 2015):
“Also recorded” adds a separate entry of the source.

Legend:
hNav1.2 = hNav1.2 (Homo sapiens, UniProt Q99250); experiment: Patch clamp selectivity, hNav1.2; assay type: cell-based; settings: hNav1.2 vs TRPA1
Protocol: Data for TRPA1 inhibition and the selectivity of TRPA1 inhibition was obtained by this method for the compound of Formula (Ia) and included in Table 1 and Table 2. All currents were recorded in whole-cell configuration using EPC-9 and EPC-10 amplifiers and Patchmaster software (HEKA). […] The standard pipette solution consisted of 140 mM CsAsp, 10 mM EGTA, 10 mM HEPES, 2.27 mM MgCl2, 1.91 mM CaCl2, 4 mM MgATP, and 0.1-0.3 mM Na2GTP, with pH adjusted to 7.2 with CsOH. In addition, a solution containing 145 mM CsCl, 10 mM HEPES, 10 mM EGTA and 1 mM MgCl2 (pH 7.2 adjusted with CsOH) can be used. The standard bath solution contained 150 mM NaCl, 10 mM HEPES, 10 mM glucose, 4.5 mM KCl, 1 mM EGTA, 3 mM MgCl2, with pH adjusted to 7.4 with NaOH. In some instances, 2 mM CaCl2 was added in place of EGTA and the concentration of MgCl2 was reduced to 1 mM.
Data were collected either by continuous recordings at −60 mV or by applying voltage ramps from a holding potential of 0 mV every 4 s. […] Inward and outward currents were analyzed from the ramps at −80 and 80 mV, respectively. […]
Solutions were switched using a gravity-fed continuous focal perfusion system. […] Temperatures were confirmed using a thermistor (Warner Instruments, TA-29), with temperatures at the recorded cell estimated to be within +/−2° C. of those reported. […]

[1] = test system: CFA-induced cold allodynia; experiment: Complete Freund's Adjuvant (CFA) cold allodynia rodent pain model; assay type: in vivo, rat; settings: in words
Protocol: The compound of Formula (Ia) is also active in rodent models of pain in vivo induced by cold allodynia following chronic Complete Freund's Adjuvant-induced inflammation, as described in Example 6. […] The compound of Formula (Ia), the comparator compound of Formula (II) and ketoprofen were tested by the CFA-induced pain test method reported in del Camino et al., J. Neurosci., 30(45):15165-15174, incorporated herein by reference in its entirety. Briefly, the hind paw is sensitized to cold temperature (allodynic), by administering 0.1 mL of Complete Freund's Adjuvant (CFA) is administered to the left hind paw. 2-3 days later, the time taken for the animal to lift its CFA-injected paw is recorded compared to its un-injected normal right hind paw. […] To avoid tissue damage the maximum cut-off time is 5 minutes. Animals that are allodynic (average PWL to the first three pain behaviors<150 seconds for the CFA-injected hind paw: ˜≧50% difference between the normal and CFA-injected paw) are included in the study and subsequently randomized across treatment groups. The following day, the animals are dosed under blinded conditions. Following the 1-2 hour pre-treatment time, the post-dose PWL readings are again taken. The efficacy of the drug treatment is assessed by comparing the PWL in the drug treatment animals to those animals that receive the vehicle.

[2] = test system: incisional spontaneous pain; experiment: Surgical incision pain model (Brennan Surgical Model); assay type: in vivo, rat; settings: 60 mg/kg i.p. vs ketoprofen (2 doses of 2 mg/kg intraperitoneally)
Protocol: The compound of Formula (Ia), the comparator compound of Formula (III) and ketoprofen were tested by the incisional pain test method reported in Brennan et al., Pain, 1996 March; 64(3):493-501 incorporated herein by reference in its entirety. Briefly, in rats under anesthesia, a 1 cm incision through skin and underlying muscle is made in the bottom of one hind paw. The incision is sutured closed and the animals allowed to regain consciousness in their home cage before being placed on a special mesh rack. The blinded observer subjectively assesses and records each animal's pain score every 5 minutes for 1 hour. Pain scores are assigned as follows: Score of 0=Injured paw is held flat on the rack and is bearing weight (=uninjured paw); 1=Injured paw is slightly lifted from the rack but is bearing some weight; 2=Injured paw is flat but is bearing no weight, or heel is lifted high off the rack with only toes touching. At the end of each hour, pain scores are added up and the final score recorded ([…]). In a typical study the efficacy of the drug treatment is determined by comparing the cumulative guarding scores at 1-2 and 3-4 hours following surgical injury to the cumulative guarding scores of animals that received the vehicle.

Chain of hNav1.2 (Q99250 whole entry): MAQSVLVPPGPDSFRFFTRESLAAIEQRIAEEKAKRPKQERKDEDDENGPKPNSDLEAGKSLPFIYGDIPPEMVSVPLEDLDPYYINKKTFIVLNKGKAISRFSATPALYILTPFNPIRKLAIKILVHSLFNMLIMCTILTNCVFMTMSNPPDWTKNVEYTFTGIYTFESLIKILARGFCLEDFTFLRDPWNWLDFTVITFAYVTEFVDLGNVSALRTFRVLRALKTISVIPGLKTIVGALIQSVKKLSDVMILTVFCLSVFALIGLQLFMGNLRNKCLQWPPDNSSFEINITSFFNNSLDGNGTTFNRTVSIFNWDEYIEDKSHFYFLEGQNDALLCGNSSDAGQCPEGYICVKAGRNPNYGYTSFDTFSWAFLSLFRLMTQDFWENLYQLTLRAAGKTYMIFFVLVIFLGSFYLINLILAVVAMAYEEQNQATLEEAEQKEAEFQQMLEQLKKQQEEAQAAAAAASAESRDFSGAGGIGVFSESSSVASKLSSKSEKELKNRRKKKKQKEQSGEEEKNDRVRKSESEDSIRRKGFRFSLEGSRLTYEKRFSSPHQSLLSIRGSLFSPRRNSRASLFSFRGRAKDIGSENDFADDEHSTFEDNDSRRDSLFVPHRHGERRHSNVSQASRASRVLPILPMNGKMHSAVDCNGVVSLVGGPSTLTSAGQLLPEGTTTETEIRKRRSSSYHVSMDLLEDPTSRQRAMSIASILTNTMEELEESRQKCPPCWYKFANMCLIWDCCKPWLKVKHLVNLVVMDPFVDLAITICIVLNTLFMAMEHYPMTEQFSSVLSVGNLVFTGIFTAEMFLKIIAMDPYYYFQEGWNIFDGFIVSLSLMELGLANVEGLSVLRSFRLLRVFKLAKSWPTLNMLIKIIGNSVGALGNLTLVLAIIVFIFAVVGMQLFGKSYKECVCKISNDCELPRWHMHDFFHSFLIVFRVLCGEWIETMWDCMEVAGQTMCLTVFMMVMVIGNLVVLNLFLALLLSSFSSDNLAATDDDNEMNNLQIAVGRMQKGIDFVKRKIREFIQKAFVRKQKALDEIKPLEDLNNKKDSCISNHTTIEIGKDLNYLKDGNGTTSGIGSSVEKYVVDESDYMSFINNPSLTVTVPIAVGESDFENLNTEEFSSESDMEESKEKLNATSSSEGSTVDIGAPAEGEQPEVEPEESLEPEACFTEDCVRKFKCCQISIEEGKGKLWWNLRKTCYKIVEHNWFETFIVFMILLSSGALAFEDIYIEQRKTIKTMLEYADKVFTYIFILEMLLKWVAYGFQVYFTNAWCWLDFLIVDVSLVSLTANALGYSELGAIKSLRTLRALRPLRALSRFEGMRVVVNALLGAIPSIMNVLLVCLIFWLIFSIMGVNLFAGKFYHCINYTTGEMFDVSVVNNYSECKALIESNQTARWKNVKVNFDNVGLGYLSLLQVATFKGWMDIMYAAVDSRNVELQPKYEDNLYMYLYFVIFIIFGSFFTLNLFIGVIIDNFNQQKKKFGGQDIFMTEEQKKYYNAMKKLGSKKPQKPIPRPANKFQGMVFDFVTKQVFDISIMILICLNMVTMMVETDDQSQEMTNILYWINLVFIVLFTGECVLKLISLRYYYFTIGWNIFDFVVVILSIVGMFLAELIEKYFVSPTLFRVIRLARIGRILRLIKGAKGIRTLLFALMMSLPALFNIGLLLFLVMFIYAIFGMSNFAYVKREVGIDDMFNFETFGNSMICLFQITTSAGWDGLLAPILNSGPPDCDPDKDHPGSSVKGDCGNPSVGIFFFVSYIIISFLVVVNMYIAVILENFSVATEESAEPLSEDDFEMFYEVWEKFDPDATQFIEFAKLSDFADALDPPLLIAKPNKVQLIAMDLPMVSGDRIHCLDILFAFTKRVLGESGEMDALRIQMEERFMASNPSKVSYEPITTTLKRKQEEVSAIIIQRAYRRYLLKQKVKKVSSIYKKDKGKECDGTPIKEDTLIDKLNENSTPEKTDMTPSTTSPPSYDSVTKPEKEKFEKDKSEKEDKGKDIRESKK

SMILES: C[C@H]1CCCN1c1ncc(-c2cccc(NC(=O)Cn3cnc4c3c(=O)n(C)c(=O)n4C)n2)cn1 [Formula (Ia)]
- Fold Selectivity Compared to TRPA1 (hNav1.2): >100 Fold
- effect on cold allodynia [1]: has an analgesic effect on cold allodynia
- reduction of spontaneous pain compared with ketoprofen [2]: equivalent to ketoprofen; also recorded: better than ketoprofen
